Results taken from patent US5604226A, “Pyridazinone derivatives, processes for production thereof and use thereof” (Nihon Nohyaku Co., Ltd., priority 1993, dated 1997).

How the values were obtained:
[1] = test system: ADP-inducing platelet aggregation; test: Rabbit exo-vivo test, ADP-inducing platelet aggregation after oral administration (Experiment 2); format: in vivo, Japanese white rabbits
Experimental: Japanese white rabbits weighing 3.0-4.0 kg were fasted for 18 hours. A drug suspension in 2% gum arabic aqueous solution was orally given to the animal in a definite dose. Blood was collected 1 and 4 hours after. PRP was prepared in a manner similar to Experiment 1 and ADP-inducing platelet aggregation function was determined. An inhibition rate was calculated based on an aggregation rate of ADP prior to administration of the compound.

[2] = test system: thrombocytopenia in mice (collagen-induced, platelet count); test: Activity of preventing thrombocytopenia in mice, collagen i.v. (Experiment 3); format: in vivo, male ddY mice; conditions: Mus musculus, 3.0 mg/kg oral, 1 hour before collagen 0.5 mg/kg i.v., * p = 5%, ** p = 1%, *** p = 0.1%, read-out: Average Inhibition Rate (platelet count; normal mouse 100, control mouse 0)
Experimental: Activity of preventing thrombocytopenia in mice:
Collagen (Holm Co.) diluted with physiological saline was intravenously given through the vein to male ddY mice of 6 weeks old, weighing 28-31 g, which had been fasted for 4-5 hours, in a dose of 0.5 mg/kg. Five minutes after, blood was collected from the lower thigh vein under pentobarbital anesthesia through a plastic syringe treated with heparin containing 3.8% sodium citrate. The drug was orally given an hour before the collagen administration. The platelet count was measured with Sysmex E-4000. The inhibition activity is shown in terms of percentage of the platelet count when the platelet count of normal mouse was made 100 and the platelet count of control mouse was made 0.

[3] = test system: Platelet aggregation (ADP, rabbit platelet rich plasma); test: Platelet aggregation inhibition in rabbit PRP, ADP-induced, Born's turbidimetry (Experiment 1); format: cell-based; conditions: Oryctolagus cuniculus, 0.05 h, ADP 2 to 4 μM, 3 min incubation, read-out: Aggregation Inhibition Rate; for inhibition at 1 µg/mL: 10^-6 g/ml; for inhibition at 0.1 µg/mL: 10^-7 g/ml
Experimental: Blood was collected from the ear vein of rabbit, together with 1/10 volume sodium citrate. Centrifugation at 1,200 rpm for 10 minutes gave the supernatant which was made platelet rich plasma (PRP). The blood was further centrifuged at 3,000 rpm for 10 minutes to give platelet poor plasma (PPP). The platelet count of PRP was adjusted to 300,000/μl with PPP, which was provided for the test. Platelet aggregation was determined with aggregometer (HEMATRACERVI, Niko Bioscience Co.) based on Born's turbidimetry. That is, 200 μl of PRP was charged in a cell and 1 μl of a drug solution dissolved in dimethylsulfoxide was added thereto. After incubation for 3 minutes, ADP was added in a concentration of 2 to 4 μM to cause aggregation. Change in transmittance in the cell was then monitored. The results are shown in Table 2, in terms of aggregation inhibition rate which was determined by comparing a transmittance of control with that obtained at the maximum aggregation on an aggregation curve when the transmittance of PRP was made 0% and the transmittance of PPP was made 100%.

Row | Compound | inhibition in vivo at 3 mg/kg [2] [%] | inhibition at 1 µg/mL [3] [%] | inhibition at 0.1 µg/mL [3] [%] | further results
1 | COc1ccc(CNc2c(OCCCc3ccccc3)n[nH]c(=O)c2Br)cc1OC [C, reference compound] | 27.4 |  |  | Average Inhibition Rate ([1]; 3 mg/kg oral, 1 Hour): 20%; Average Inhibition Rate ([1]; 3 mg/kg oral, 4 Hours): 23%; Average Inhibition Rate ([1]; 30 mg/kg oral, 1 Hour): 36%; Average Inhibition Rate ([1]; 30 mg/kg oral, 4 Hours): 35%
2 | O=c1[nH]nc(OCCCc2ccccc2)c(NCc2cccnc2)c1Br [Comparative Compound A, reference compound] |  | 100 | 84 | 
3 | COc1ccc(CNc2c(OCCOc3ccccc3)n[nH]c(=O)c2Br)cc1OC [Comparative Compound B, reference compound] |  |  | 79 | 
4 | O=c1[nH]nc(OCCSc2ccccc2)c(NCc2cccnc2)c1Cl [Compound 1] |  | 100 | 37 | 
5 | O=c1[nH]nc(OCCCSc2ccccc2)c(NCc2cccnc2)c1Cl [Compound 2, 4-chloro-6-[3-(phenylthio)propyloxy]-5-(3-picolylamino)-3(2H)-pyridazinone] |  | 100 | 27 | 
6 | COc1ccc(CNc2c(OCCSc3ccccc3)n[nH]c(=O)c2Cl)cc1OC [Compound 4] |  | 100 | 100 | 
7 | COc1ccc(CNc2c(OCCSc3ccccc3)n[nH]c(=O)c2Br)cc1OC [Compound 6, 4-bromo-5-(3,4-dimethoxyphenylmethyl-amino)-6-[2-(phenylthio)ethyloxy]-3(2H)-pyridazinone] | 33 | 100 | 100 | 
8 | COc1ccc(CNc2c(OCCCSc3ccccc3)n[nH]c(=O)c2Br)cc1OC [Compound 7] |  | 100 | 74 | 
9 | COc1ccc(CNc2c(OCCS(=O)(=O)c3ccccc3)n[nH]c(=O)c2Br)cc1OC [Compound 10, 4-bromo-5-(3,4-dimethoxyphenylmethylamino)-6-[2-(phenylsulfonyl)ethyloxy]-3(2H)-pyridazinone] |  |  | 100 | 
10 | COc1ccc(CNc2c(OCCCS(=O)(=O)c3ccccc3)n[nH]c(=O)c2Br)cc1OC [Compound 11] |  |  | 71 | 
11 | COc1ccc(CNc2c(OCCSc3ccccc3)nn(CN3CCOCC3)c(=O)c2Br)cc1OC [Compound 12] | 43 |  | 100 | 
12 | COc1ccc(CNc2c(OCC[S+]([O-])c3ccccc3)nn(CN3CCOCC3)c(=O)c2Br)cc1OC (centres unmarked) [Compound 13] |  |  | 100 | 
13 | COc1ccc(CNc2c(OCCSc3ccc(F)cc3)n[nH]c(=O)c2Br)cc1OC [Compound 14, 4-bromo-5-(3,4-dimethoxyphenylmethylamino)-6-[2-(4fluorophenylthio)ethyloxy]-3(2H)-pyridazinone] | 23.3 |  | 100 | 
14 | COc1ccc(CNc2c(OCC[S+]([O-])c3ccc(F)cc3)n[nH]c(=O)c2Br)cc1OC (centres unmarked) [Compound 15, 4-bromo-5-(3,4-dimethoxyphenylmethyl-amino)-6-[2-(4-fluorophenylsulfinyl)ethyloxy]-3(2H)-pyridazinone] | 52.4 |  | 100 | 
15 | COc1ccc(CNc2c(OCCS(=O)(=O)c3ccc(F)cc3)n[nH]c(=O)c2Br)cc1OC [Compound 16, 4-bromo-6-[2-(4-fluorophenylsulfonyl)ethyloxy]-5-(3,4-dimethoxyphenylmethylamino)-3(2H)-pyridazinone] | 35.7 |  | 100 | 
16 | COc1ccc(CNc2c(OCCSc3ccc(F)cc3)nn(CN3CCN(C)CC3)c(=O)c2Br)cc1OC [Compound 17, 4-bromo-5-(3,4-dimethoxyphenylmethylamino)-6-[2-(4-fluorophenylthio)ethyloxy]-2-(4-methylpiperazinlylmethyl)-3(2H)-pyridazinone] |  |  | 100 | 
17 | COc1ccc(CNc2c(OCCSc3ccccc3Cl)n[nH]c(=O)c2Br)cc1OC [Compound 18] | 30.1 |  | 100 | 
18 | COc1ccc(CNc2c(OCC[S+]([O-])c3ccccc3Cl)n[nH]c(=O)c2Br)cc1OC (centres unmarked) [Compound 19, 4-bromo-6-[2-(2-chlorophenylsulfinyl)ethyloxy]-5-(3,4-dimethoxyphenylmethylamino)-3(2H)-pyridazinone] | 33.8 |  | 100 | 

Row | Compound | inhibition in vivo at 3 mg/kg [2] [%] | inhibition at 1 µg/mL [3] [%] | inhibition at 0.1 µg/mL [3] [%] | further results
19 | COc1ccc(CNc2c(OCCSc3cccc(Cl)c3)n[nH]c(=O)c2Br)cc1OC [Compound 20] |  | 100 | 90 | 
20 | O=c1[nH]nc(OCCSc2ccc(Cl)cc2)c(NCc2cccnc2)c1Cl [Compound 23] |  | 100 | 100 | 
21 | COc1ccc(CNc2c(OCCSc3ccc(Cl)cc3)n[nH]c(=O)c2Cl)cc1OC [Compound 24] |  | 100 | 100 | 
22 | Cc1ccc(SCCOc2n[nH]c(=O)c(Cl)c2NCc2cccnc2)cc1 [Compound 27] |  | 100 | 80 | 
23 | COc1ccc(CNc2c(OCCSc3ccc(C)cc3)n[nH]c(=O)c2Cl)cc1OC [Compound 28] |  | 100 | 100 | 
24 | COc1ccc(CNc2c(OCC[S+]([O-])c3ccc(C)cc3)n[nH]c(=O)c2Cl)cc1OC (centres unmarked) [Compound 29] |  | 100 | 100 | 
25 | COc1ccc(CNc2c(OCC[S+]([O-])c3ccc(C)cc3)n[nH]c(=O)c2Br)cc1OC (centres unmarked) [Compound 30, 4-bromo-5-(3,4-dimethoxyphenylmethylamino)-6-[2-(p-tolylsulfinyl)ethyloxy]-3(2H)-pyridazinone] |  | 100 | 100 | 
26 | COc1ccc(CNc2c(OCCSc3ccc(C)cc3C)n[nH]c(=O)c2Br)cc1OC [Compound 31, 4-bromo-5-(3,4-dimethoxyphenylmethylamino)-6-[2-(2,4-dimethylphenylthio)ethyloxy]-3(2H)-pyridazinone] |  |  | 100 | 
27 | COc1ccc(CNc2c(OCC[S+]([O-])c3ccc(C)cc3C)n[nH]c(=O)c2Br)cc1OC (centres unmarked) [Compound 32, 4-bromo-5-(3,4-dimethoxyphenylmethyl-amino)-6-[2-(2,4-dimethylphenylsulfinyl)ethyloxy]-3(2H)pyridazinone] |  |  | 100 | 
28 | COc1ccc(CNc2c(OCCS(=O)(=O)c3ccc(C)cc3C)n[nH]c(=O)c2Br)cc1OC [Compound 33, 4-bromo-5-(3,4-dimethoxyphenylmethyl-amino)-6-[2-(2,4-dimethylphenylsulfonyl)ethyloxy]-3(2H)-pyridazinone] |  |  | 100 | 
29 | COc1ccc(SCCOc2n[nH]c(=O)c(Cl)c2NCc2cccnc2)cc1 [Compound 34] |  | 100 | 64 | 
30 | COc1ccc(SCCOc2n[nH]c(=O)c(Cl)c2NCc2ccc(OC)c(OC)c2)cc1 [Compound 35] |  | 100 | 83 | 
31 | COc1ccc(S(=O)(=O)CCOc2n[nH]c(=O)c(Cl)c2NCc2ccc(OC)c(OC)c2)cc1 [Compound 36] |  | 100 | 83 | 
32 | COc1ccc(CNc2c(OCCSc3ccc(C#N)cc3)n[nH]c(=O)c2Br)cc1OC [Compound 37] | 35.4 | 100 | 100 | 
33 | COc1ccc(CNc2c(OCC[S+]([O-])c3ccc(C#N)cc3)n[nH]c(=O)c2Br)cc1OC (centres unmarked) [Compound 38] | 21.8 |  | 100 | 
34 | COc1ccc(CNc2c(OCCSc3ccc([N+](=O)[O-])cc3)n[nH]c(=O)c2Br)cc1OC [Compound 39, 4-bromo-5-(3,4-dimethoxyphenylmethylamino)-6-[2-(4-nitrophenylthio)ethyloxy]-3(2H)-pyridazinone] | 30.4 | 100 | 93 | 
35 | COc1ccc(CNc2c(OCC[S+]([O-])c3ccc([N+](=O)[O-])cc3)n[nH]c(=O)c2Br)cc1OC (centres unmarked) [Compound 40] | 40.8 |  |  | 
36 | CCN(CC)C(=O)c1ccc(SCCOc2n[nH]c(=O)c(Br)c2NCc2ccc(OC)c(OC)c2)cc1 [Compound 41] |  |  | 100 | 
